The supplement of paper PMC11061612

Tests used:
Test in all cases: combination Emax (second highest fraction inhibited in the dose matrix, 72 h); higher = more inhibition; extreme values may be limits of the assay
[1] = test system: A4-Fuk (B-Lymphoblastic Leukemia)
Outline: (§1)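 After 24 hours at 37°C and 5% CO2 in 1536-well plates, cells in DMEM/F12 or RPMI plus 10% FBS received two-drug dose matrices for 72 hours. Viability came from CellTiter-Glo 2.0 luminescence and was scaled as inhibition, anchored at 0 by vehicle wells and at 1 by blank wells. Combination Emax is taken as the second-highest inhibition in the matrix, and Bliss excess as the observed combination effect less EA + EB − EA·EB, with EA and EB the single-agent effects.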

[2] = test system: ALL-SIL (T-Lymphoblastic Leukemia)
Outline: as §1

[3] = test system: CADO-ES1 (Ewing's Sarcoma)
Outline: as §1

[4] = test system: DU-145 (Prostate Carcinoma)
Outline: as §1

[5] = test system: HCC1937 (Breast Carcinoma)
Outline: as §1

[6] = test system: HCC2998 (Colorectal Carcinoma)
Outline: as §1

Hey (Ovarian Carcinoma) = test system: Hey (Ovarian Carcinoma)
Outline: as §1

[7] = test system: LC-1-sq (Squamous Cell Lung Carcinoma)
Outline: as §1

[8] = test system: MDA-MB-453 (Breast Carcinoma)
Outline: as §1

[9] = test system: MOG-G-UVW (Low Grade Glioma)
Outline: as §1

[10] = test system: NCI-H1092 (Small Cell Lung Carcinoma)
Outline: as §1

[11] = test system: NCI-H1993 (Lung Adenocarcinoma)
Outline: as §1

[12] = test system: NCI-H2122 (Lung Adenocarcinoma)
Outline: as §1

[13] = test system: NCI-H522 (Lung Adenocarcinoma)
Outline: as §1

[14] = test system: OACM5-1 (Esophageal Adenocarcinoma)
Outline: as §1

[15] = test system: SK-LU-1 (Lung Adenocarcinoma)
Outline: as §1

SK-N-AS (Neuroblastoma) = test system: SK-N-AS (Neuroblastoma)
Outline: as §1

[16] = test system: SKN (Other Solid Carcinomas)
Outline: as §1

[17] = test system: SW872 (Other Solid Carcinomas)
Outline: as §1

[18] = test system: COLO-668 (Small Cell Lung Carcinoma)
Outline: as §1

SMILES | combination Emax [1] | combination Emax [2] | combination Emax [3] | combination Emax [4] | combination Emax [5] | combination Emax [6] | combination Emax (Hey (Ovarian Carcinoma)) | combination Emax [7] | combination Emax [8] | combination Emax [9] | combination Emax [10] | combination Emax [11] | combination Emax [12] | combination Emax [13] | combination Emax [14] | combination Emax [15] | combination Emax (SK-N-AS (Neuroblastoma)) | combination Emax [16] | combination Emax [17] | combination Emax [18]
CN(CCO)CC[C@H](CSc1ccccc1)Nc1ccc(S(=O)(=O)NC(=O)c2ccc(N3CCC([C@@H](O)c4ccccc4-c4ccc(Cl)cc4)CC3)cc2)cc1S(=O)(=O)C(F)(F)F [AZD4320] + CN(C)CCCOc1ccc(-c2ccc3ncc4c(c3c2)n(C2CCOCC2)c(=O)n4C)cn1 [AZD0156] (first compound max 1 µM, 7x7, partner max 1 µM) | 0.476 | 1 | 0.611 | 0.0779 | 0.439 | 0.554 | 0.256 | 0.217 | 0.175 | 0.135 | 0.862 | 0.742 | 0.24 | 0.0875 | 0.433 | 0.322 | 0.109 | 0.127 | 0.148 | –
O=C(c1cc(Cc2n[nH]c(=O)c3ccccc23)ccc1F)N1CCN(C(=O)C2CC2)CC1 [Olaparib] + COc1nnc2ccc(N3CCC(c4ccc(OCCN5CCN(C)C(=O)[C@H]5C)cc4)CC3)nn12 [AZD5153] (first compound max 10 µM, 7x7, partner max 1 µM) | 0.876 | – | – | 0.219 | – | – | – | – | 0.664 | 0.641 | – | 0.459 | – | 0.309 | – | 0.332 | 0.326 | 0.553 | 0.568 | 0.323
Cc1c2c(nn1C)CSCc1cc(n(C)n1)CSc1cc(c3ccccc3c1)OCCCc1c(C(=O)O)n(C)c3c-2c(Cl)ccc13 [AZD5991] + Nc1ccn([C@@H]2O[C@H](CO)[C@@H](O)C2(F)F)c(=O)n1 [Gemcitabine] (first compound max 1 µM, 7x7, partner max 0.3 µM) | 1 | – | – | 0.441 | – | – | – | – | 0.731 | 0.857 | – | 0.902 | – | 0.784 | – | 0.19 | 0.717 | 0.582 | 0.811 | 0.829
CS(=O)(=O)CCNCc1ccc(-c2ccc3ncnc(Nc4ccc(OCc5cccc(F)c5)c(Cl)c4)c3c2)o1 [Lapatinib] + Cn1cnc2c(F)c(Nc3ccc(Br)cc3Cl)c(C(=O)NOCCO)cc21 [Selumetinib] (first compound max 10 µM, 7x7, partner max 10 µM) | 0.979 | – | – | 0.171 | – | – | – | – | 0.389 | 0.469 | – | 0.73 | – | 0.257 | – | 0.377 | 0.441 | 0.341 | 0.25 | 0.493
C=CCn1c(=O)c2cnc(Nc3ccc(N4CCN(C)CC4)cc3)nc2n1-c1cccc(C(C)(C)O)n1 [AZD1775] + Nc1ccn([C@@H]2O[C@H](CO)[C@@H](O)C2(F)F)c(=O)n1 [Gemcitabine] (first compound max 1 µM, partner max 0.3 µM) | 0.965 | – | – | 0.542 | – | – | – | – | 0.539 | 0.938 | – | 0.905 | – | 0.608 | – | 0.457 | 0.704 | 0.633 | 0.825 | 0.738
O=C(c1cc(Cc2n[nH]c(=O)c3ccccc23)ccc1F)N1CCN(C(=O)C2CC2)CC1 [Olaparib] + CC1(C)CCC(CN2CCN(c3ccc(C(=O)NS(=O)(=O)c4ccc(NCC5CCOCC5)c([N+](=O)[O-])c4)c(Oc4cnc5[nH]ccc5c4)c3)CC2)=C(c2ccc(Cl)cc2)C1 [Venetoclax] (first compound max 10 µM, 7x7, partner max 1 µM) | 0.301 | – | – | 0.126 | – | – | – | – | 0.104 | 0.257 | – | 0.0726 | – | 0.0786 | – | 0.2 | 0.106 | 0.104 | 0.141 | 0.255
CN(CCO)CC[C@H](CSc1ccccc1)Nc1ccc(S(=O)(=O)NC(=O)c2ccc(N3CCC([C@@H](O)c4ccccc4-c4ccc(Cl)cc4)CC3)cc2)cc1S(=O)(=O)C(F)(F)F [AZD4320] + C=CCn1c(=O)c2cnc(Nc3ccc(N4CCN(C)CC4)cc3)nc2n1-c1cccc(C(C)(C)O)n1 [AZD1775] (first compound max 1 µM, partner max 1 µM) | 0.898 | 1 | 0.566 | 0.213 | 0.791 | 0.899 | 0.673 | 0.869 | 0.285 | – | 0.809 | 0.927 | 0.953 | 0.237 | 0.635 | 0.542 | 0.976 | 0.586 | 0.3 | –
Cc1nc(-c2cn3c(n2)-c2ccc(-c4cnn(C(C)(C)C(N)=O)c4)cc2OCC3)n(C(C)C)n1 [Taselisib] + O=C(Nc1ccc2[nH]nc(-c3ccncc3)c2c1)[C@@H]1CCN(CC(=O)N2CCN(c3ccc(-c4ncccn4)cc3)CC2)C1 [SCH772984] (first compound max 10 µM, 7x7, partner max 5 µM) | 1 | – | – | 0.342 | – | – | – | – | 0.721 | 0.884 | – | 0.886 | – | 0.339 | – | 0.516 | 0.494 | 0.735 | 0.636 | 0.855
C[C@@H]1COCCN1c1cc(C2([S@](C)(=N)=O)CC2)nc(-c2ccnc3[nH]ccc23)n1 [AZD6738] + C1CC(C1)(C(=O)[O-])C(=O)[O-].N.N.[Pt+2] [Carboplatin] (first compound max 10 µM, 7x7, partner max 10 µM) | 0.823 | – | – | 0.351 | – | – | – | – | 0.66 | 0.723 | – | 0.547 | – | 0.194 | – | 0.497 | 0.69 | 0.427 | 0.456 | 0.567
C[C@@H](Oc1cc(-c2cnn(C3CCNCC3)c2)cnc1N)c1c(Cl)ccc(F)c1Cl [Crizotinib] + CC1=C(C(=CC=C1)Cl)NC(=O)C2=CN=C(S2)NC3=CC(=NC(=N3)C)N4CCN(CC4)CCO [Dasatinib] (first compound max 10 µM, 7x7, partner max 2 µM) | 0.922 | – | – | 0.462 | – | – | – | – | 0.214 | 0.928 | – | 0.811 | – | 0.339 | – | 0.479 | 0.491 | 0.866 | 0.615 | 0.415
CN(CCO)CC[C@H](CSc1ccccc1)Nc1ccc(S(=O)(=O)NC(=O)c2ccc(N3CCC([C@@H](O)c4ccccc4-c4ccc(Cl)cc4)CC3)cc2)cc1S(=O)(=O)C(F)(F)F [AZD4320] + CS(=O)(=O)CCNCc1ccc(-c2ccc3ncnc(Nc4ccc(OCc5cccc(F)c5)c(Cl)c4)c3c2)o1 [Lapatinib] (first compound max 1 µM, 7x7, partner max 10 µM) | 0.931 | – | – | 0.174 | – | – | – | – | 0.548 | 0.298 | – | 0.943 | – | 0.237 | – | 0.47 | 0.197 | 0.759 | 0.198 | 0.975
CS(=O)(=O)CCNCc1ccc(-c2ccc3ncnc(Nc4ccc(OCc5cccc(F)c5)c(Cl)c4)c3c2)o1 [Lapatinib] + NC1(c2ccc(-c3nc4ccn5c(=O)[nH]nc5c4cc3-c3ccccc3)cc2)CCC1 [MK-2206] (first compound max 10 µM, 7x7, partner max 10 µM) | 0.971 | – | – | 0.297 | 0.841 | – | – | – | 0.801 | 0.648 | 0.791 | 0.68 | – | 0.322 | – | 0.335 | 0.16 | 0.658 | 0.247 | 0.508
Cc1c2c(nn1C)CSCc1cc(n(C)n1)CSc1cc(c3ccccc3c1)OCCCc1c(C(=O)O)n(C)c3c-2c(Cl)ccc13 [AZD5991] + CC(=O)O[C@H]1C(=O)[C@@]2(C)[C@H]([C@H](OC(=O)c3ccccc3)[C@]3(O)C[C@H](OC(=O)[C@H](O)[C@@H](NC(=O)c4ccccc4)c4ccccc4)C(C)=C1C3(C)C)[C@]1(OC(C)=O)CO[C@@H]1C[C@@H]2O [Paclitaxel] (first compound max 1 µM, 7x7, partner max 3 µM) | 1 | – | – | 0.686 | – | – | – | – | 0.92 | 0.986 | – | 0.863 | – | 0.969 | – | 0.39 | 0.83 | 0.694 | 0.869 | 0.46
C=CCn1c(=O)c2cnc(Nc3ccc(N4CCN(C)CC4)cc3)nc2n1-c1cccc(C(C)(C)O)n1 [AZD1775] + CCc1c2c(nc3ccc(O)cc13)-c1cc3c(c(=O)n1C2)COC(=O)[C@]3(O)CC [SN-38] (first compound max 1 µM, partner max 0.3 µM) | 1 | – | – | 0.598 | – | – | – | – | 0.696 | 0.945 | – | 0.739 | – | 0.7 | – | 0.645 | 0.844 | 0.756 | 0.933 | 0.956
C[C@@H](Oc1cc(-c2cnn(C3CCNCC3)c2)cnc1N)c1c(Cl)ccc(F)c1Cl [Crizotinib] + Cn1cnc2c(F)c(Nc3ccc(Br)cc3Cl)c(C(=O)NOCCO)cc21 [Selumetinib] (first compound max 10 µM, 7x7, partner max 10 µM) | 0.942 | – | – | 0.12 | – | – | – | – | 0.15 | 0.77 | – | 0.871 | – | 0.117 | – | 0.34 | 0.585 | 0.368 | 0.338 | 0.852
